According to ChEMBL document CHEMBL4706659, “Design, synthesis and biological evaluation of novel 2,4-diaryl pyrimidine derivatives as selective EGFR inhibitors” (Eur J Med Chem, 2021):

Experiments:
NCI-H1975 [1] = test: Induction of apoptosis in human NCI-H1975 cells harboring EGFR T790M/L858R mutant assessed as late apoptotic cells at 1 nM measured after 48 hrs by Annexin-V-FITC/propidium iodide staining based flow cytometry (reference value: 0.04%); type: functional
NCI-H1975 [2] = test: Induction of mitochondrial membrane potential loss in human NCI-H1975 cells harboring EGFR T790M/L858R mutant measured after 24 hrs by JC1 staining based fluorescence microscopic analysis; type: functional, cell-based; conditions: dose 1-10 nM
[3] = AUC (0 to infinity) in Sprague-Dawley rat at 10 mg/kg, po administered as single dose; type: ADME, organism-based; parameters: time infinity, route oral, dose 10 mg/kg; conditions: in vivo
NCI-H1975 [4] = test: Antiproliferative activity against human NCI-H1975 cells harboring EGFR T790M/L858R mutant by MTT assay; type: functional, cell-based
NCI-H292 = test: Antiproliferative activity against human NCI-H292 cells harboring wild-type EGFR by MTT assay; type: functional, cell-based
L02 = test: Cytotoxicity against human L02 cells assessed as reduction in cell viability by MTT assay; type: cell-based
NCI-H1975 [5] = test: Induction of apoptosis in human NCI-H1975 cells harboring EGFR T790M/L858R mutant assessed as early apoptotic cells at 5 nM measured after 48 hrs by Annexin-V-FITC/propidium iodide staining based flow cytometry (reference value: 0.82%); type: functional
[6] = MRT in Sprague-Dawley rat at 2 mg/kg, iv administered as single dose; type: ADME, organism-based; conditions: in vivo
[7] = target: Epidermal growth factor receptor (Homo sapiens, UniProt P00533); test: Inhibition of recombinant human GST-tagged EGFR expressed in baculovirus expression system using tyr-04 peptide as substrate incubated for 60 mins in presence of ATP by Z'-LYTE assay
NCI-H1975 [8] = test: Induction of apoptosis in human NCI-H1975 cells harboring EGFR T790M/L858R mutant assessed as necrotic cells at 5 nM measured after 48 hrs by Annexin-V-FITC/propidium iodide staining based flow cytometry (reference value: […]); type: functional
NCI-H1975 [9] = test: Induction of apoptosis in human NCI-H1975 cells harboring EGFR T790M/L858R mutant assessed as necrotic cells at 1 nM measured after 72 hrs by Annexin-V-FITC/propidium iodide staining based flow cytometry (reference value: 0.49%); type: functional
NCI-H1975 [10] = test: Induction of mitochondrial membrane potential loss in human NCI-H1975 cells harboring EGFR T790M/L858R mutant assessed as cell population with mitochondrial membrane potential collapse at 1 nM measured after 24 hrs by JC1 staining based fluorescence microscopic analysis (reference value: 5.49%); type: functional
NCI-H1975 [11] = test: Antimigratory activity against human NCI-H1975 cells harboring EGFR T790M/L858R mutant assessed as inhibition of cell migration at 3 nM measured after 48 hrs by phase contrast microscopic analysis relative to control; type: functional
NCI-H1975 [12] = test: Antimigratory activity against human NCI-H1975 cells harboring EGFR T790M/L858R mutant assessed as inhibition of cell migration at 3 nM measured after 24 hrs by phase contrast microscopic analysis relative to control; type: functional
[13] = Selectivity ratio of IC50 for HK-2 cells to IC50 for antiproliferative activity against human NCI-H1975 cells
NCI-H1975 [14] = test: Induction of mitochondrial membrane potential loss in human NCI-H1975 cells harboring EGFR T790M/L858R mutant assessed as cell population with mitochondrial membrane potential collapse at 5 nM measured after 24 hrs by JC1 staining based fluorescence microscopic analysis (reference value: 5.49%); type: functional
[15] = MRT in Sprague-Dawley rat at 10 mg/kg, po administered as single dose; type: ADME, organism-based; conditions: in vivo
[16] = Toxicity in nude mouse xenografted with human NCI-H1975 cells harboring EGFR T790M/L858R mutant assessed as body weight loss at 15 mg/kg, po administered once daily for 7 days relative to control; type: organism-based; conditions: in vivo, 168 h, time 7 day
NCI-H1975 [17] = test: Induction of apoptosis in human NCI-H1975 cells harboring EGFR T790M/L858R mutant assessed as necrotic cells at 1 nM measured after 48 hrs by Annexin-V-FITC/propidium iodide staining based flow cytometry (reference value: […]); type: functional
NCI-H1975 [18] = test: Induction of apoptosis in human NCI-H1975 cells harboring EGFR T790M/L858R mutant assessed as early apoptotic cells at 10 nM measured after 72 hrs by Annexin-V-FITC/propidium iodide staining based flow cytometry (reference value: 0.72%); type: functional
PC-9 = test: Antiproliferative activity against human PC-9 cells harboring EGFR L858R mutant by MTT assay; type: functional, cell-based
[19] = AUC (0 to infinity) in Sprague-Dawley rat at 2 mg/kg, iv administered as single dose; type: ADME, organism-based; parameters: route intravenous, time infinity, dose 2 mg/kg; conditions: in vivo
[20] = target: Epidermal growth factor receptor (Homo sapiens, UniProt P00533, L858R/T790M); test: Inhibition of recombinant human GST-tagged EGFR T790M/L858R double mutant (668 to 1210 residues) expressed in baculovirus expression system using Tyr 4 as substrate incubated for 60 mins by Z'-Lyte assay
NCI-H1975 [21] = test: Induction of apoptosis in human NCI-H1975 cells harboring EGFR T790M/L858R mutant assessed as late apoptotic cells at 10 nM measured after 48 hrs by Annexin-V-FITC/propidium iodide staining based flow cytometry (reference value: 0.04%); type: functional
NCI-H1975 [22] = test: Induction of apoptosis in human NCI-H1975 cells harboring EGFR T790M/L858R mutant assessed as necrotic cells at 10 nM measured after 72 hrs by Annexin-V-FITC/propidium iodide staining based flow cytometry (reference value: 0.49%); type: functional
NCI-H1975 [23] = test: Induction of mitochondrial membrane potential loss in human NCI-H1975 cells harboring EGFR T790M/L858R mutant assessed as cells with intact mitochondrial membrane potential at 5 nM measured after 24 hrs by JC1 staining based fluorescence microscopic analysis (reference value: 94.51%); type: functional
[24] = AUC (0 to t) in Sprague-Dawley rat at 10 mg/kg, po administered as single dose; type: ADME, organism-based; parameters: dose 10 mg/kg; conditions: in vivo
[25] = Cytotoxicity against HEK293-A cells assessed as reduction in cell viability by MTT assay; type: cell-based; conditions: Homo sapiens
[26] = Half life in Sprague-Dawley rat at 2 mg/kg, iv administered as single dose; type: ADME, organism-based; conditions: in vivo
NCI-H1975 [27] = test: Induction of mitochondrial membrane potential loss in human NCI-H1975 cells harboring EGFR T790M/L858R mutant assessed as cells with intact mitochondrial membrane potential at 1 nM measured after 24 hrs by JC1 staining based fluorescence microscopic analysis (reference value: 94.51%); type: functional
[28] = Clearance in Sprague-Dawley rat at 2 mg/kg, iv administered as single dose; type: ADME, organism-based; conditions: in vivo
NCI-H1975 [29] = test: Induction of apoptosis in human NCI-H1975 cells harboring EGFR T790M/L858R mutant assessed as viable cells at 10 nM measured after 48 hrs by Annexin-V-FITC/propidium iodide staining based flow cytometry (reference value: 98.63%); type: functional; conditions: read-out: Activity
[30] = Selectivity ratio of IC50 for HEK293-A cells to IC50 for antiproliferative activity against human NCI-H1975 cells; type: toxicity, cell-based; conditions: HEK293-A cells versus NCI-H1975 cells, read-out: Ratio IC50

Epidermal growth factor receptor (Homo sapiens, UniProt P00533, L858R/T790M), sequence (P00533 25-1210 T790M/L858R limits assumed): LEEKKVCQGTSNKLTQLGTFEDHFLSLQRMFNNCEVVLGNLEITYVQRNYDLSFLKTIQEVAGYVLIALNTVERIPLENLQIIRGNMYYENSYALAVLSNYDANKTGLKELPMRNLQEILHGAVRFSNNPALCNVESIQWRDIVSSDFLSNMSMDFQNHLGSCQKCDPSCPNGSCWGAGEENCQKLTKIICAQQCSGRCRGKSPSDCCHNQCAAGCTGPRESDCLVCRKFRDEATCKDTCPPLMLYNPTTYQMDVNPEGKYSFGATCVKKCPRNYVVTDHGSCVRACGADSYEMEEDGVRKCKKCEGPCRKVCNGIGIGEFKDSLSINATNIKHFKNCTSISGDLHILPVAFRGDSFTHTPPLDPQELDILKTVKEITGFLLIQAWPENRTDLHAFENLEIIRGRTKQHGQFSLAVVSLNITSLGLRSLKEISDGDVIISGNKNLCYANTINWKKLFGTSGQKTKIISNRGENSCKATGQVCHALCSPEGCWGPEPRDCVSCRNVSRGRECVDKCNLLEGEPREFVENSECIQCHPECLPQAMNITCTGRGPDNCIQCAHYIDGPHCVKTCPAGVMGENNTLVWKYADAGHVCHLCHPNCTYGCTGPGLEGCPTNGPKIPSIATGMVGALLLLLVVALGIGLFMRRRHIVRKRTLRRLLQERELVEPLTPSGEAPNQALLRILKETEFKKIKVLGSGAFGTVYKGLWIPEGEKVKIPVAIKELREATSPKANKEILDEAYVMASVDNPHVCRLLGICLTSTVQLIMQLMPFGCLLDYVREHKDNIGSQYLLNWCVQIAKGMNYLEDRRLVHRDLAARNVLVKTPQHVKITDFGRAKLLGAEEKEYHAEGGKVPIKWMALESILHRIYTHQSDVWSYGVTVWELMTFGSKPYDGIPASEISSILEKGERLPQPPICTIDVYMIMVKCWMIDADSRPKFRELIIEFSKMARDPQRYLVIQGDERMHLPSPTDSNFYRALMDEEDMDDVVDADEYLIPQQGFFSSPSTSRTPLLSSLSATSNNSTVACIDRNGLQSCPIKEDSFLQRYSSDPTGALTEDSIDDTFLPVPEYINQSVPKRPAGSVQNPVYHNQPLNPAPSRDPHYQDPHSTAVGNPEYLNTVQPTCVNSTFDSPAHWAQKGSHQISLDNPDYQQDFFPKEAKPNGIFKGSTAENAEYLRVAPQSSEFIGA
Epidermal growth factor receptor (Homo sapiens, UniProt P00533), sequence (P00533 whole entry): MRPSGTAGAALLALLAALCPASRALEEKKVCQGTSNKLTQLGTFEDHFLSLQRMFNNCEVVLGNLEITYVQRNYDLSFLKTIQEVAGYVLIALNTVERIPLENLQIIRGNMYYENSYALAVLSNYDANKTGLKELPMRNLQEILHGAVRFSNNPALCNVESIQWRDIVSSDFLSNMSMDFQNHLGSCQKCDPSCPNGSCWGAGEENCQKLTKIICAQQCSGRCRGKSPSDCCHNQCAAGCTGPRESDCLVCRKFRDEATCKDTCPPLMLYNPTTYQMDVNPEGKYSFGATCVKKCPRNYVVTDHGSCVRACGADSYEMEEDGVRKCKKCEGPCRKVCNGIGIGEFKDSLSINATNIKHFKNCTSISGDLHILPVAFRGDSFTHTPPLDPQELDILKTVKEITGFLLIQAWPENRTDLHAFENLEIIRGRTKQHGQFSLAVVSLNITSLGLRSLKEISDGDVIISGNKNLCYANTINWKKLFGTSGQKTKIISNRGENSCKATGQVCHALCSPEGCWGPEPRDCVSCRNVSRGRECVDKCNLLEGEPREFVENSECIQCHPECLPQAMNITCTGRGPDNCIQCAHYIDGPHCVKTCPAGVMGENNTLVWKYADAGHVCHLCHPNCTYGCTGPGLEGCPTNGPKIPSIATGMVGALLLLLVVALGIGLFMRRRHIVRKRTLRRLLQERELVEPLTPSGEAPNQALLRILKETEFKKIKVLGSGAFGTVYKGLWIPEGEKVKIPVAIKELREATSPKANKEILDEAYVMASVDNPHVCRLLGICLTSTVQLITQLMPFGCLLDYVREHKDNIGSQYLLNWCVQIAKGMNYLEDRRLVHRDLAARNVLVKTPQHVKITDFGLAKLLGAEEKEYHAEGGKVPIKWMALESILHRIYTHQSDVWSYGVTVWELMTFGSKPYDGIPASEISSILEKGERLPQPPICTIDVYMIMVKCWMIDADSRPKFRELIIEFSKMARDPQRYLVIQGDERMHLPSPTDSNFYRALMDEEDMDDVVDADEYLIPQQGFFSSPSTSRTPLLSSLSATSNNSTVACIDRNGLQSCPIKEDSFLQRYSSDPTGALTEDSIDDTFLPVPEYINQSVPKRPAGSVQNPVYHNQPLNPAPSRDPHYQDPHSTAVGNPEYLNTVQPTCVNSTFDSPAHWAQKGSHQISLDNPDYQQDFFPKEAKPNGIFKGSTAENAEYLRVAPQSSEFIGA

For `C=CC(=O)Nc1cc(Nc2nccc(-c3cn(C4CC4)c4ccccc34)n2)c(OC)cc1[S+]([O-])CCN(C)C` (stereo not drawn), the Activity (NCI-H1975 [1]) was 1.64%, the Activity (NCI-H1975 [2]) was “Dose-dependent effect” and the AUC(0-inf) [3] was 722 ng·h/mL. It also gave an IC50 (NCI-H1975 [4]) of 8 nM, an IC50 (NCI-H292) of 718 nM and an IC50 (L02) of 4.67 µM. The Activity (NCI-H1975 [5]) was 21.73%, the MRT [6] was 1.01 h and the IC50 [7] was 4.1 nM. It also gave an Activity (NCI-H1975 [8]) of 7.42%, an Activity (NCI-H1975 [9]) of 9.52% and an Activity (NCI-H1975 [10]) of 19.29%. For the same compound, the inhibition at 0.003 µM (NCI-H1975 [11]) was 53%, the inhibition at 0.003 µM (NCI-H1975 [12]) was 39% and the “Ratio IC50” value [13] was 733. The Activity (NCI-H1975 [14]) was 26.9%, the MRT [15] was 3.61 h and the Activity [16] was < 5%. For the same compound, the Activity (NCI-H1975 [17]) was 5.52%, the Activity (NCI-H1975 [18]) was 44.72% and the IC50 (PC-9) was 4 nM. The AUC(0-inf) [19] was 340 ng·h/mL, the IC50 [20] was 0.26 nM and the Activity (NCI-H1975 [21]) was 21.25%. For the same compound, the Activity (NCI-H1975 [22]) was 5.38%, the Activity (NCI-H1975 [23]) was 72.38% and the AUC(0-t) [24] was 676 ng·h/mL. The IC50 [25] was 3.06 µM, the half-life [26] was 42 min and the Activity (NCI-H1975 [27]) was 80.71%. The clearance [28] was 98.1 mL/min/kg, the viability at 0.01 µM (NCI-H1975 [29]) was 41.1% and the selectivity ratio [30] was 383.
